Assay results from the NIST ThermoML archive (doi:10.1021/je0502849).

Conditions: Liquid, Pulse-echo method

CC(C)CC(C)(C)C [2,2,4-trimethylpentane]
speed of sound [m/s]
Conditions	293.15 K	303.15 K	313.15 K	323.15 K	333.15 K	343.15 K	353.15 K	363.15 K	373.15 K
100 kPa	1104.6	1061.7	1019.1	977.9	935.8	897.3	858.2	817.2	780.4
10000 kPa	1178.5	1139.3	1100.9	1063.5	1026.6	992.6	958	924.3	891
20000 kPa	1244.6	1208.6	1173	1138.8	1105.2	1071.6	1041.7	1011.1	980.7
30000 kPa	1304.8	1270.2	1237	1204.7	1173	1142.7	1114.1	1085.5	1057.5
40000 kPa	1358.5	1326.8	1295.2	1264.6	1234.2	1205.7	1178.7	1151.4	1125.2
50000 kPa	1410.3	1378.5	1349.3	1319	1290.2	1262.9	1236.1	1211.3	1185.9
60000 kPa	1458.1	1427	1397.6	1369.8	1341.8	1315.4	1290.4	1265.7	1242.1
70000 kPa	1502.5	1472.6	1443.4	1416.6	1390	1363.5	1339.5	1316.6	1293.1
80000 kPa	1544.7	1515.6	1487.6	1461.2	1434.9	1410.8	1386.8	1364.4	1341.5
90000 kPa	1584.5	1556.4	1529	1503.4	1479	1453.6	1431	1408.2	1386
100000 kPa	1622.6	1594.5	1568.7	1543.4	1519	1495.3	1472.5	1449.9	1428.5
110000 kPa	1658.9	1632.1	1605.9	1581.4	1557.7	1534	1512.1	1490.6	1469.2
120000 kPa	1694	1667.5	1641.7	1617.8	1594.1	1571.7	1549.6	1529	1508.2
130000 kPa	1727.5	1701.6	1676.3	1653.1	1629.5	1607.2	1585.9	1565.5	1545.1
140000 kPa	1760.1	1734.3	1709.4	1686.4	1663.5	1641.7	1620.5	1600.8	1580.3
150000 kPa	1791.1	1766.4	1741.7	1718.6	1696.2	1675	1654.1	1634.2	1614
